Reference: US20260001914A1, “MACROCYCLIC PEPTIDES TARGETING KRAS” (Merck Sharp & Dohme LLC, priority 2022, published 2026)
*1 amine or outer side, *2 acyl side, *3 side chain or, on linkers, in order; H or OH if unused. Where a SMILES comes first, the peptide text is derived from it. [ ]: non-standard residue; d: D form. NMeNva(5-imidazol-1-yl) = CN[C@@H](CCCn1ccnc1)C(=O)O; Ala(pyrimidin-5-yl) = N[C@@H](Cc1cncnc1)C(=O)O; Phe(2,6-F2) = N[C@@H](Cc1c(F)cccc1F)C(=O)O; X25 = O=C([C@H](Cc1ccc(F)nc1)N[*:1])[*:2]; X30 = O=C([C@H](Cc1ncccc1F)N[*:1])[*:2]; NMeAha = CN[C@@H](CCN=[N+]=[N-])C(=O)O; X2 = O=C([C@H](Cc1ccccc1F)O[*:1])[*:2]; X35 = CN([C@@H](CCCF)C(=O)[*:2])[*:1]; Phe(2-F) = N[C@@H](Cc1ccccc1F)C(=O)O; NMe3Pal = CN[C@@H](Cc1cccnc1)C(=O)O; X1 = O=C(C12CC(CN[*:1])(C1)C2)[*:2]; NMeCha = CN[C@@H](CC1CCCCC1)C(=O)O; NMeF = CN[C@@H](Cc1ccccc1)C(=O)O; PhLac = O=C(O)[C@@H](O)Cc1ccccc1; 3Pal = N[C@@H](Cc1cccnc1)C(=O)O; Ahp(2) = CCCCC[C@H](N)C(=O)O; Cba = N[C@@H](CC1CCC1)C(=O)O; hLeu = CC(C)CC[C@H](N)C(=O)O; NMeA = CN[C@@H](C)C(=O)O; Nle = CCCC[C@H](N)C(=O)O; Nva = CCC[C@H](N)C(=O)O

Target: phosphorylation levels of ERK1/2 in AsPC-1 (homozygous KRAS-G12D) cells (Homo sapiens, UniProt P01116, G12D)
Test: Cellular phospho-ERK assay in AsPC-1 cells (Alpha Screen), assay medium without fetal bovine serum;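 further: signal taken as phospho-ERK over total ERK per well, both detected in one multiplex bead assay, EC50 from four-parameter logistic fit of dose-response curves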
Format: cell-based
Conditions: phospho-ERK AlphaScreen, 18 h

Chain of phosphorylation levels of ERK1/2 in AsPC-1 (homozygous KRAS-G12D) cells (P01116 1-186 G12D): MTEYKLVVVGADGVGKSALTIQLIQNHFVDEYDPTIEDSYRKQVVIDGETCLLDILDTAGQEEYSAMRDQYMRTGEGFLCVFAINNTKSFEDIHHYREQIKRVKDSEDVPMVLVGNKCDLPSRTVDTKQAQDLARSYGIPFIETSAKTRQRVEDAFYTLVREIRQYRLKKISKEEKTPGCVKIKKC

First: CC(C)CC[C@@H]1NC(=O)[C@H](Cc2c(F)cccc2F)NC(=O)[C@H](CC2CCC2)NC(=O)[C@H](Cc2cncnc2)NC(=O)[C@H](C)N(C)C(=O)[C@H](Cc2ccccc2)OC(=O)C23CC(CNC(=O)[C@H](Cc4ccccc4)N(C)C1=O)(C2)C3 [compound 226, cyclo(FLac-NMeA-PyrimAla-cBuA-Phe26F2-hL-NMeF-amBCP)] (cyclo([Cba][Phe(2,6-F2)][hLeu][NMeF][X1][PhLac][NMeA][Ala(pyrimidin-5-yl)]))
Second: CCCC[C@@H]1NC(=O)[C@H](Cc2cncnc2)NC(=O)[C@H](C)N(C)C(=O)[C@H](Cc2ccccc2)OC(=O)C23CC(CNC(=O)[C@H](Cc4ccccc4)N(C)C(=O)[C@H](CCCC)NC(=O)[C@H](Cc4ccccc4F)NC1=O)(C2)C3 [compound 230, cyclo(FLac-NMeA-PyrimAla-Nle-Phe2F-Nle-NMeF-amBCP)] (cyclo([NMeA][Ala(pyrimidin-5-yl)][Nle][Phe(2-F)][Nle][NMeF][X1][PhLac]))
The EC50 of the first is 1.7-fold lower: 0.355 µM for the first, 0.59 µM for the second.

Compared with `CCCCC[C@@H]1NC(=O)[C@H](Cc2ccc(OC)cc2)NC(=O)[C@H](CC2CCC2)NC(=O)[C@H](Cc2cccnc2)NC(=O)[C@H](C)N(C)C(=O)[C@H](Cc2ccccc2)OC(=O)C23CC(CNC(=O)[C@H](Cc4ccccc4)N(C)C1=O)(C2)C3` [compound 227, cyclo(FLac-NMeA-3Pal-cBuA-TyrOMe-Ahp-NMeF-amBCP)] (cyclo([3Pal][Cba]Y(Me)[Ahp(2)][NMeF][X1][PhLac][NMeA])), `CCCC[C@@H]1NC(=O)[C@H](Cc2cccnc2)NC(=O)[C@H](C)N(C)C(=O)[C@H](Cc2ccccc2)OC(=O)C23CC(CNC(=O)[C@H](Cc4ccccc4)N(C)C(=O)[C@H](CCCC)NC(=O)[C@H](Cc4ccccc4F)NC1=O)(C2)C3` [compound 236, cyclo(FLac-NMeA-3Pal-Nle-Phe2F-Nle-NMeF-amBCP)] (cyclo([3Pal][Nle][Phe(2-F)][Nle][NMeF][X1][PhLac][NMeA])) is 1.6-fold higher in EC50: 0.886 µM for the first, 1.44 µM for the second. The first is the more potent here.

Compared with `CCCC[C@@H]1NC(=O)[C@H](Cc2ccc(F)nc2)NC(=O)[C@H](C)N(C)C(=O)[C@H](Cc2ccccc2)OC(=O)C23CC(CNC(=O)[C@H](Cc4ccccc4)N(C)C(=O)[C@H](CCCC)NC(=O)[C@H](Cc4ncccc4F)NC1=O)(C2)C3` [compound 228, cyclo(FLac-NMeA-4F3Pal-Nle-2Pal6F-Nle-NMeF-amBCP)] (cyclo([NMeA][X25][Nle][X30][Nle][NMeF][X1][PhLac])), `CCCC[C@@H]1NC(=O)[C@H](Cc2ccc(F)nc2)NC(=O)[C@H](C)N(C)C(=O)[C@H](Cc2ccccc2)OC(=O)C23CC(CNC(=O)[C@H](Cc4ccccc4)N(C)C(=O)[C@H](CCCC)NC(=O)[C@H](Cc4ccccc4F)NC1=O)(C2)C3` [compound 231, cyclo(FLac-NMeA-4F3Pal-Nle-Phe2F-Nle-NMeF-amBCP)] (cyclo([NMeA][X25][Nle][Phe(2-F)][Nle][NMeF][X1][PhLac])) is lower in EC50: > 50.8 µM for the first, 0.589 µM for the second.

First: CCCC[C@@H]1NC(=O)[C@H](Cc2cncnc2)NC(=O)[C@H](C)N(C)C(=O)[C@H](Cc2ccccc2)OC(=O)C23CC(CNC(=O)[C@H](Cc4ccccc4)N(C)C(=O)[C@H](CCCC)NC(=O)[C@H](Cc4ncccc4F)NC1=O)(C2)C3 [compound 229, cyclo(FLac-NMeA-PyrimAla-Nle-2Pal6F-Nle-NMeF-amBCP)] (cyclo([NMeA][Ala(pyrimidin-5-yl)][Nle][X30][Nle][NMeF][X1][PhLac]))
Second: CCCC[C@@H]1NC(=O)[C@H](Cc2cncnc2)NC(=O)[C@H](C)N(C)C(=O)[C@H](Cc2ccccc2)OC(=O)C23CC(CNC(=O)[C@H](Cc4cccnc4)N(C)C(=O)[C@H](CCCC)NC(=O)[C@H](Cc4ccccc4F)NC1=O)(C2)C3 [compound 237, cyclo(FLac-NMeA-PyrimAla-Nle-Phe2F-Nle-NMe3Pal-amBCP)] (cyclo([NMe3Pal][X1][PhLac][NMeA][Ala(pyrimidin-5-yl)][Nle][Phe(2-F)][Nle]))
The EC50 of the first is 3.6-fold higher: 48.7 µM for the first, 13.4 µM for the second. The second is the more potent here.

Going from `CCCC[C@@H]1NC(=O)[C@H](Cc2cccnc2)NC(=O)[C@H](C)N(C)C(=O)[C@H](Cc2ccccc2)OC(=O)C23CC(CNC(=O)[C@H](CC4CCCCC4)N(C)C(=O)[C@H](CCCC)NC(=O)[C@H](Cc4ccccc4F)NC1=O)(C2)C3` [compound 232, cyclo(FLac-NMeA-3Pal-Nle-Phe2F-Nle-NMeCha-amBCP)] (cyclo([3Pal][Nle][Phe(2-F)][Nle][NMeCha][X1][PhLac][NMeA])) to `CCCC[C@@H]1NC(=O)[C@H](Cc2ccc(F)nc2)NC(=O)[C@H](C)N(C)C(=O)[C@H](Cc2ccccc2)OC(=O)C23CC(CNC(=O)[C@H](Cc4cccnc4)N(C)C(=O)[C@H](CCCC)NC(=O)[C@H](Cc4ccccc4F)NC1=O)(C2)C3` [compound 235, cyclo(FLac-NMeA-4F3Pal-Nle-Phe2F-Nle-NMe3Pal-amBCP)] (cyclo([NMe3Pal][X1][PhLac][NMeA][X25][Nle][Phe(2-F)][Nle])), the EC50 falls from > 50.8 µM to 11.8 µM. The second is the more potent here.

First: CCCC[C@@H]1NC(=O)[C@H](Cc2cccnc2)NC(=O)[C@H](CCCn2ccnc2)N(C)C(=O)[C@H](Cc2ccccc2)OC(=O)C23CC(CNC(=O)[C@H](Cc4ccccc4)N(C)C(=O)[C@H](CCCC)NC(=O)[C@H](Cc4ccccc4F)NC1=O)(C2)C3 [compound 233, cyclo(FLac-NMeNvalmid-3Pal-Nle-Phe2F-Nle-NMeF-amBCP)] (cyclo([3Pal][Nle][Phe(2-F)][Nle][NMeF][X1][PhLac][NMeNva(5-imidazol-1-yl)]))
Second: CCCC[C@@H]1NC(=O)[C@H](Cc2cncnc2)NC(=O)[C@H](CCCn2ccnc2)N(C)C(=O)[C@H](Cc2ccccc2)OC(=O)C23CC(CNC(=O)[C@H](Cc4cccnc4)N(C)C(=O)[C@H](CCCC)NC(=O)[C@H](Cc4ccccc4F)NC1=O)(C2)C3 [compound 240, cyclo(FLac-NMeNvalmid-PyrimAla-Nle-Phe2F-Nle-NMe3Pal-amBCP)] (cyclo([NMe3Pal][X1][PhLac][NMeNva(5-imidazol-1-yl)][Ala(pyrimidin-5-yl)][Nle][Phe(2-F)][Nle]))
The EC50 of the first is lower: 5.16 µM for the first, > 50.8 µM for the second.

Going from `CCCC[C@@H]1NC(=O)[C@H](Cc2ccc(F)nc2)NC(=O)[C@H](C)N(C)C(=O)[C@H](Cc2ccccc2)OC(=O)C23CC(CNC(=O)[C@H](Cc4ccccc4)N(C)C(=O)[C@H](CCC)NC(=O)[C@H](Cc4ccccc4F)NC1=O)(C2)C3` [compound 234, cyclo(FLac-NMeA-4F3Pal-Nle-Phe2F-Nva-NMeF-amBCP)] (cyclo([NMeA][X25][Nle][Phe(2-F)][Nva][NMeF][X1][PhLac])) to `CCCC[C@@H]1NC(=O)[C@H](Cc2cccnc2)NC(=O)[C@H](CCCF)N(C)C(=O)[C@H](Cc2ccccc2)OC(=O)C23CC(CNC(=O)[C@H](Cc4cccnc4)N(C)C(=O)[C@H](CCCC)NC(=O)[C@H](Cc4ccccc4F)NC1=O)(C2)C3` [compound 239, cyclo(FLac-NMeNvaF-3Pal-Nle-Phe2F-Nle-NMe3Pal-amBCP)] (cyclo([3Pal][Nle][Phe(2-F)][Nle][NMe3Pal][X1][PhLac][X35])), the EC50 falls from > 50.8 µM to 20.7 µM.

`CCCC[C@@H]1NC(=O)[C@H](Cc2cccnc2)NC(=O)[C@H](CCN=[N+]=[N-])N(C)C(=O)[C@H](Cc2ccccc2)OC(=O)C23CC(CNC(=O)[C@H](Cc4cccnc4)N(C)C(=O)[C@H](CCCC)NC(=O)[C@H](Cc4ccccc4F)OC1=O)(C2)C3` [compound 238, cyclo(FLac-NMeDabN3-3Pal-Nle-F2FLac-Nle-NMe3Pal-amBCP)] (cyclo([3Pal][Nle][X2][Nle][NMe3Pal][X1][PhLac][NMeAha])) was tested, and the EC50 was 3.48 µM.
